Where “and” joins values, the source holds several entries; their conditions need not be identical. Equal entries are not always repeated.
What was measured:
[1] = tested on: ion channel binding site of NMDA receptors; assay: [^18F]PK-209 brain PET, baseline versus S-ketamine infusion; format: in vivo, human; settings: for V ND / k 3 / K i / % ΔKi: individual subjects S6–S10; for K i: net influx rate; for % ΔKi: percentage change from the baseline scan after ketamine
Method: In total, 20 PET scans were acquired on a Gemini TF-64 PET/CT scanner (Philips Medical Systems, Cleveland, OH, USA). Five subjects underwent [^18F]PK-209 test–retest (TRT) scans 31–61 days apart over a period of 211 days. Another five subjects underwent baseline and ketamine scans 13–161 days apart over a period of 258 days. At the start of each scan [^18F]PK-209 was injected as an intravenous bolus with a mean injected activity of 187 ± 7 MBq. All scans were performed between 12:00 and 15:00 h to minimize diurnal variation. Duration of daylight on each scan day was calculated to investigate seasonal changes in tracer binding. Dynamic PET data were acquired for 120 min and binned into 25 time frames (1 × 15, 3 × 5, 3 × 10, 4 × 60, 2 × 150, 2 × 300, 10 × 600 s). PET was followed by a low-dose CT (30 mAs, 120 kVp) for attenuation correction and localization. Data were reconstructed using a three-dimensional row action maximum likelihood reconstruction algorithm (3-D RAMLA). Acquired PET data were normalized and corrected for dead time, randoms, scatter, attenuation, and decay.
The (S+)-isomer of ketamine (0.5 mg · kg^−1) was dissolved in NaCl 50 mL and administered intravenously in a pseudo-steady state model with a sub-acute loading dose. First, ketamine was administered for 40 min at a rate of 0.006 mg · kg^−1 · min^−1 followed by a 130 min equilibrium phase at 0.002 mg · kg^−1 · min^−1. [^18F]PK-209 injection and start of PET were performed at 10 min into the equilibrium phase, following 0.26 mg · kg^−1 administration in the preceding 50 min.
Prior to the PET studies, structural three-dimensional coronal T1-weighted magnetic resonance images (MRI) were acquired for all subjects on a 1.5T Sonata scanner (Siemens Medical Solutions, Erlangen, Germany) with 160 coronal slices using echo time 3.97 ms, repetition time 2700 ms, flip angle 8°, and voxel size 1.0 × 1.5 × 1.0 mm^3. Subject motion was checked by visual inspection of the alignment of intrasubject PET frames, and no frames were excluded due to excessive movement. T1-weighted MRI scans were co-registered to an average of the PET frames from ~ 4–70 min p.i. using VINCI software. The co-registered MRI scans were segmented into gray matter (GM), white matter, and extra-cerebral fluid, using PVE-lab. Subsequently, 68 regions of interest (ROIs), including whole brain, were derived from the Hammers atlas and used to extract GM time-activity curves (TACs). As a last step, the TACs of 60 out of the 67 ROIs were redefined into nine volume-weighted ROIs by combining the radioactivity at each timepoint according to the equation Bq¯=∑iαi×Bqi/∑iαi , where αi is the volume (in mm^3) of region i, and Bqi the counts per mm^3 of region i. The selection of ROIs was based on the widespread NMDA-R availability in the brain: frontal, temporal, occipital, and parietal cortices; hippocampus; thalamus; insula; brainstem; dorsal striatum; and cerebellum, as well as whole brain GM from the Hammers atlas. Standardized uptake values (SUV; equalling measured activity divided by injected dose per body weight) were calculated for whole brain GM.
Using the metabolite-corrected arterial plasma input function, all GM TACs were fitted to single-tissue (1T2k), two-tissue irreversible (2T3k), and reversible (2T4k) compartmental models, both with and without an additional parameter for fractional blood volume (VB). The non-metabolite-corrected arterial whole blood curve was used as input function for VB. The optimal tracer kinetic model for describing in vivo kinetics of [^18F]PK-209 was determined according to the Akaike Information Criterion (AIC). Depending on the model preference, outcome measures were the net influx constant (Ki = K1 k3/(k2 + k3)) or the distribution volume (VT=K1/k2(1+k3/k4)) . For subsequent group level analysis (e.g., TRT variability and ketamine effects), all scans were analyzed using the same, most preferred, tracer kinetic model. […]

[2] = tested on: NMDA-R; settings: cited from earlier work
[3] = 2T3k_VB, single scan IF, baseline scan
[4] = 2T3k_VB, single scan IF, ketamine scan
[5] = mean ketamine versus mean baseline, single scan IF

Structure (SMILES): CSc1ccc(Cl)c(NC(=N)N(C)c2cccc(OC[18F])c2)c1 [[^18F]PK-209, 3-(2-chloro-5-(methylthio)phenyl)-1-(3-([^18F]fluoromethoxy)phenyl)-1-methylguanidine]
- Mean baseline K i ([1]; 2T3k_VB, population IF): 0.0106 min⁻¹
- Mean ketamine K i ([1]; 2T3k_VB, population IF): 0.0107 min⁻¹
- Mean baseline K 1 ([1]; 2T3k_VB, single scan IF): 0.492 mL · cm^3 · min^−1
- Mean baseline K i ([1]; 2T3k_VB, single scan IF): 0.0129 min⁻¹
- Mean baseline V ND ([1]; 2T3k_VB, single scan IF): 9.25
- Mean baseline k 3 ([1]; 2T3k_VB, single scan IF): 0.0016 min⁻¹
- Mean ketamine K 1 ([1]; 2T3k_VB, single scan IF): 0.516 mL · cm^3 · min^−1
- Mean ketamine K i ([1]; 2T3k_VB, single scan IF): 0.0128 min⁻¹
- Mean ketamine V ND ([1]; 2T3k_VB, single scan IF): 9.22
- Mean ketamine k 3 ([1]; 2T3k_VB, single scan IF): 0.0015 min⁻¹
- V ND [1, 3]: 9.78 and 6.54 and 11.72 and 7.74 and 10.51
- k 3 [1, 3]: 0.0005 min⁻¹ and 0.0029 min⁻¹ and 0.0007 min⁻¹ and 0.0026 min⁻¹ and 0.0014 min⁻¹
- V ND [1, 4]: 9.66 and 9.75 and 10.30 and 6.56 and 9.84
- k 3 [1, 4]: 0.0014 min⁻¹ and 0.0012 min⁻¹ and 0.0008 min⁻¹ and 0.0020 min⁻¹
- Mean baseline K i ([1]; 2T3k_VB, within-subject IF): 0.0147 min⁻¹
- Mean ketamine K i ([1]; 2T3k_VB, within-subject IF): 0.0162 min⁻¹
- mean SUV90–120 ([1]; baseline scans): 1.53
- mean SUVAUC ([1]; baseline scans): 289 ± 51 SUV·min
- increase in mean SUV90–120 from baseline to ketamine scans ([1]; in vivo): 10%
- increase in whole brain SUVAUC following ketamine administration ([1]; individual subjects 6–10): 27% and 1% (2×) and 17% and 8%
- mean SUV90–120 ([1]; ketamine scans): 1.68
- mean SUVAUC ([1]; ketamine scans): 321 ± 66 SUV·min
- % Change of mean K i ([1]; mean ketamine versus mean baseline, population IF): 1%
- % Change of mean K 1 [1, 5]: 5%
- % Change of mean K i [1, 5]: −1%
- % Change of mean k 3 [1, 5]: −9%
- % Change of mean K i ([1]; mean ketamine versus mean baseline, within-subject IF): 10%
- K i ([1]; 2T3k_VB, population IF, baseline scan): 0.0071 min⁻¹ and 0.0150 min⁻¹ and 0.0183 min⁻¹ and 0.0114 min⁻¹ and 0.0011 min⁻¹
- K i ([1]; 2T3k_VB, population IF, ketamine scan): 0.0152 min⁻¹ and 0.0162 min⁻¹ and 0.0167 min⁻¹ and 0.0044 min⁻¹ and 0.0010 min⁻¹
- K i [1, 3]: 0.0046 min⁻¹ and 0.0182 min⁻¹ and 0.0083 min⁻¹ and 0.0193 min⁻¹ and 0.0143 min⁻¹
- K i [1, 4]: 0.0129 min⁻¹ and 0.0118 min⁻¹ and 0.0084 min⁻¹ and 0.0124 min⁻¹ and 0.0186 min⁻¹
- K i ([1]; 2T3k_VB, within-subject IF, baseline scan): 0.0038 min⁻¹ and 0.0170 min⁻¹ and 0.0220 min⁻¹ and 0.0200 min⁻¹ and 0.0105 min⁻¹
- K i ([1]; 2T3k_VB, within-subject IF, ketamine scan): 0.0128 min⁻¹ and 0.0169 min⁻¹ and 0.0201 min⁻¹ and 0.0118 min⁻¹ and 0.0192 min⁻¹
- % ΔKi ([1]; population IF): 113% and 8% and −9% and −62% and −10%
- % ΔKi ([1]; single scan IF): 182% and 1% and 30%
- % ΔKi ([1]; within-subject IF): 237% and 0% and 83%
- decrease in K1 after ketamine ([1]; subjects 8 and 9, respectively): 18% and 11%
- reduction in mean SUVAUC after MK-801 administration ([2]; non-human primate): 15%
- volume of distribution (VT) compared with baseline ([2]; rhesus monkeys, IV 0.3 mg ∙ kg^−1 MK-801 30 min before PET): reduced the volume of distribution (VT) compared with baseline in two out of three subjects
- retention in NMDA-R-rich cortical regions relative to the cerebellum ([2]; rhesus monkeys): prolonged retention

— paper PMC6063804 (EJNMMI Research, 2018)
